Each block holds one compound with its values, some of them ahead of it.
System: 485176-168-R4-J1-PDC complex spheroid growth
Experiment: Anticancer human tumor 485176-168-R4-J1-PDC patient-derived pancreatic adenocarcinoma cell line growth inhibition [RAS]
Conditions: for IC50: curve of first compound; for viability, T/C: stronger effect = lower value
Procedure, shortened: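 Multi-cell-type spheroids: tumor cells plus HUVEC endothelial cells and mesenchymal stem cells. RAS-pathway inhibitors were combined with targeted agents, each dosed in half-log steps down from clinical Cmax, or from 10 microM when Cmax was unknown.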

[1] = second compound 0.000949 µM, first compound 0.0316 µM
[2] = second compound 0.000949 µM, first compound 0.1 µM
[3] = second compound 0.000949 µM, first compound 0.316 µM
[4] = second compound 0.000949 µM, first compound 1 µM
[5] = second compound 0.003 µM, first compound 0.0316 µM
[6] = second compound 0.003 µM, first compound 0.1 µM
[7] = second compound 0.003 µM, first compound 0.316 µM
[8] = second compound 0.003 µM, first compound 1 µM
[9] = second compound 0.00949 µM, first compound 0.0316 µM
[10] = second compound 0.00949 µM, first compound 0.1 µM
[11] = second compound 0.00949 µM, first compound 0.316 µM
[12] = second compound 0.00949 µM, first compound 1 µM
[13] = second compound 0.03 µM, first compound 0.0316 µM
[14] = second compound 0.03 µM, first compound 0.1 µM
[15] = second compound 0.03 µM, first compound 0.316 µM
[16] = second compound 0.03 µM, first compound 1 µM
[17] = second compound 0.0949 µM, first compound 0.0316 µM
[18] = second compound 0.0949 µM, first compound 0.1 µM
[19] = second compound 0.0949 µM, first compound 0.316 µM
[20] = second compound 0.0949 µM, first compound 1 µM
[21] = second compound 0.3 µM, first compound 0.0316 µM
[22] = second compound 0.3 µM, first compound 0.1 µM
[23] = second compound 0.3 µM, first compound 0.316 µM
[24] = second compound 0.3 µM, first compound 1 µM
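Note: spheroids exposed to compounds for seven days before readout.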
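Throughout, for viability, T/C: luminescence viability expressed relative to DMSO vehicle wells set as 100%.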

IC50 (second compound 0.000949 µM): > 10000 nM
IC50 (second compound 0.003 µM): > 10000 nM
IC50 (second compound 0.00949 µM): > 10000 nM
IC50 (second compound 0.03 µM): > 10000 nM
IC50 (second compound 0.0949 µM): > 10000 nM
IC50 (second compound 0.3 µM): > 10000 nM
Structure (SMILES): NC1c2ccccc2OC12CCN(c1cnc3c(N4CCCc5ncccc54)n[nH]c3n1)CC2 (centres undefined) + CCn1c(-c2cc(N3CCN(C)CC3)cnc2C(C)OC)c2c3cc(ccc31)-c1csc(n1)CC(NC(=O)C1CC1C)C(=O)N1CCCC(N1)C(=O)OCC(C)(C)C2
viability, T/C [1]: 86.4%
viability, T/C [2]: 88.8%
viability, T/C [3]: 97.4%
viability, T/C [4]: 85%
viability, T/C (second compound 0.000949 µM, first compound 3.16 µM): 89.2%
viability, T/C (second compound 0.000949 µM, first compound 10 µM): 79.1%
viability, T/C [5]: 93.1%
viability, T/C [6]: 80.9%
viability, T/C [7]: 76.7%
viability, T/C [8]: 97.9%
viability, T/C (second compound 0.003 µM, first compound 3.16 µM): 91.8%
viability, T/C (second compound 0.003 µM, first compound 10 µM): 81.4%
viability, T/C [9]: 81.7%
viability, T/C [10]: 93.2%
viability, T/C [11]: 76.2%
viability, T/C [12]: 81.1%
viability, T/C (second compound 0.00949 µM, first compound 3.16 µM): 81.9%
viability, T/C (second compound 0.00949 µM, first compound 10 µM): 67.2%
viability, T/C [13]: 83%
viability, T/C [14]: 98%
viability, T/C [15]: 83.4%
viability, T/C [16]: 104%
viability, T/C (second compound 0.03 µM, first compound 3.16 µM): 91%
viability, T/C (second compound 0.03 µM, first compound 10 µM): 79%
viability, T/C [17]: 80.8%
viability, T/C [18]: 82%
viability, T/C [19]: 76.9%
viability, T/C [20]: 85.2%
viability, T/C (second compound 0.0949 µM, first compound 3.16 µM): 100%
viability, T/C (second compound 0.0949 µM, first compound 10 µM): 76.9%
viability, T/C [21]: 87.4%
viability, T/C [22]: 86.1%
viability, T/C [23]: 69%
viability, T/C [24]: 80.1%
viability, T/C (second compound 0.3 µM, first compound 3.16 µM): 83.1%
viability, T/C (second compound 0.3 µM, first compound 10 µM): 75.1%

IC50 (second compound 0.000949 µM): 17 nM
IC50 (second compound 0.003 µM): 17.4 nM
IC50 (second compound 0.00949 µM): 18.2 nM
IC50 (second compound 0.03 µM): 12.5 nM
IC50 (second compound 0.0949 µM): 14.4 nM
IC50 (second compound 0.3 µM): 19.1 nM
Structure (SMILES): Nc1ccn(C2OC(CO)C(O)C2(F)F)c(=O)n1 (centres undefined) + CCn1c(-c2cc(N3CCN(C)CC3)cnc2C(C)OC)c2c3cc(ccc31)-c1csc(n1)CC(NC(=O)C1CC1C)C(=O)N1CCCC(N1)C(=O)OCC(C)(C)C2
viability, T/C (second compound 0.000949 µM, first compound 0.00316 µM): 100%
viability, T/C (second compound 0.000949 µM, first compound 0.01 µM): 73.4%
viability, T/C [1]: 23.1%
viability, T/C [2]: 9.57%
viability, T/C [3]: 11.2%
viability, T/C [4]: 11.5%
viability, T/C (second compound 0.003 µM, first compound 0.00316 µM): 94%
viability, T/C (second compound 0.003 µM, first compound 0.01 µM): 80.6%
viability, T/C [5]: 17.1%
viability, T/C [6]: 6.87%
viability, T/C [7]: 8.05%
viability, T/C [8]: 13.2%
viability, T/C (second compound 0.00949 µM, first compound 0.00316 µM): 79.7%
viability, T/C (second compound 0.00949 µM, first compound 0.01 µM): 86.2%
viability, T/C [9]: 19.7%
viability, T/C [10]: 7.74%
viability, T/C [11]: 10.7%
viability, T/C [12]: 12%
viability, T/C (second compound 0.03 µM, first compound 0.00316 µM): 97.9%
viability, T/C (second compound 0.03 µM, first compound 0.01 µM): 58.2%
viability, T/C [13]: 15.4%
viability, T/C [14]: 12.6%
viability, T/C [15]: 12.6%
viability, T/C [16]: 11.5%
viability, T/C (second compound 0.0949 µM, first compound 0.00316 µM): 102%
viability, T/C (second compound 0.0949 µM, first compound 0.01 µM): 63.8%
viability, T/C [17]: 20.7%
viability, T/C [18]: 9.33%
viability, T/C [19]: 11.3%
viability, T/C [20]: 7.79%
viability, T/C (second compound 0.3 µM, first compound 0.00316 µM): 73%
viability, T/C (second compound 0.3 µM, first compound 0.01 µM): 80.2%
viability, T/C [21]: 29.2%
viability, T/C [22]: 9.97%
viability, T/C [23]: 9.95%
viability, T/C [24]: 11.2%
